Reference: patent US8722052B2, “Vaccinia virus protein A46 peptide and use thereof” (priority 2008, dated 2014)
Ends that are not written are not given here.

Experiments:
Mal = molecular target: T1, Mal (Homo sapiens, UniProt P58753); assay: His peptide pulldown of overexpressed Flag-Mal from HEK293_T lysates; assay type: binding; details: 25 μM His-peptide, Ni-agarose beads, 2 hr at 4° C.
T1 construct: expressed in transfected cells; host or cells: HEK293_T, lysed in 1% NP-40 buffer
Experimental: (§1) HEK293_T cells were seeded in 6 well plate (1.5×10^5 cells/ml) 24 hours before transfection with 1 μg/well Flag-Mal and 2 μg/well Flag-TRAM encoding plasmids. The total amount of plasmid DNA transfected into the cells was made up to […] by adding pcDNA. 24 hours post-transfection cells were lysed in 1% NP-40 lysis buffer containing 20 mM imidazole. The experimental lysates were incubated with 25 μM His-A464 peptide ((H-H-H-H-H-H-[…]) (SEQ ID NO. 66) and 40 μL of Ni-agarose beads for 2 hr at 4° C. Control samples were incubated with either beads only or beads and 25 μM His-A467 peptide (H-H-H-H-H-H-[…]) (SEQ ID NO. 67). After incubation beads were washed 5 times in lysis buffer with imidazole. Proteins were resolved by SDS-PAGE, and transferred membranes immunoblotted for Flag. Data is representative of four experiments; and
(§2) HEK293_T cells were seeded in 6 well plates (1.5×10^5 cells/ml) 24 hours before transfection. 8 μl of GeneJuice was mixed with 32 μl of serum-free DMEM (SFM) per transfection and incubated for 5 min at room temperature before adding 1 μg per transfection of Flag-Mal or 2 μg of Flag-TRAM encoding plasmid DNA. GeneJuice/SFM/DNA mixture was then incubated for 15 min at room temperature before adding to the cells. […] The signal was read using Odyssey Infrared Imaging System, LI-COR® Biosciences.

TRAM = molecular target: T2, TRAM (Homo sapiens, UniProt Q86XR7); assay: His peptide pulldown of overexpressed Flag-TRAM from HEK293_T lysates; assay type: binding; details: 25 μM His-peptide, Ni-agarose beads, 2 hr at 4° C.
T2 construct: expressed in transfected cells; host or cells: HEK293_T, lysed in 1% NP-40 buffer
Experimental: as §1, §2

[1] = peptide solubility (observation)
TLR4 = assay type: cell-based, human; details: THP-1; peptide 20 or 40 μM 1 h before 100 ng/ml LPS; 6 h
TLRs = assay: TLR responses in human cells; assay type: cell-based
[2] = test system: bacterial-induced inflammation; details: murine model; McCoy et al, 2005; cited from earlier work
[3] = test system: LPS-induced inflammatory mediators; details: Tsung et al, 2007; cited from earlier work

T1 sequence (P58753 whole entry): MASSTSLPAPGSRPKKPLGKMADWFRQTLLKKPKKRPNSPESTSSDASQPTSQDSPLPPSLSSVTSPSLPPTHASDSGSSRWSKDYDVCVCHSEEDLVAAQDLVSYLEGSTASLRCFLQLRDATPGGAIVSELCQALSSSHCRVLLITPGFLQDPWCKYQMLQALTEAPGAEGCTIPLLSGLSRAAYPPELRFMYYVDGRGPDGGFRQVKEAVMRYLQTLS
T2 sequence (Q86XR7 whole entry): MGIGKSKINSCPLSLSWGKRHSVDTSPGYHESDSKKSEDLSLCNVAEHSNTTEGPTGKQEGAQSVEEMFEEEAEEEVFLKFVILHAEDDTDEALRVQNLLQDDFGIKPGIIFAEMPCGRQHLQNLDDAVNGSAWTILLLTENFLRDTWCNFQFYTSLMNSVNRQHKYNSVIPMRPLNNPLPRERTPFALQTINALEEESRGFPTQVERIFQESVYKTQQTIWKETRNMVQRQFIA
Chain of TLR4 (O00206 24-839): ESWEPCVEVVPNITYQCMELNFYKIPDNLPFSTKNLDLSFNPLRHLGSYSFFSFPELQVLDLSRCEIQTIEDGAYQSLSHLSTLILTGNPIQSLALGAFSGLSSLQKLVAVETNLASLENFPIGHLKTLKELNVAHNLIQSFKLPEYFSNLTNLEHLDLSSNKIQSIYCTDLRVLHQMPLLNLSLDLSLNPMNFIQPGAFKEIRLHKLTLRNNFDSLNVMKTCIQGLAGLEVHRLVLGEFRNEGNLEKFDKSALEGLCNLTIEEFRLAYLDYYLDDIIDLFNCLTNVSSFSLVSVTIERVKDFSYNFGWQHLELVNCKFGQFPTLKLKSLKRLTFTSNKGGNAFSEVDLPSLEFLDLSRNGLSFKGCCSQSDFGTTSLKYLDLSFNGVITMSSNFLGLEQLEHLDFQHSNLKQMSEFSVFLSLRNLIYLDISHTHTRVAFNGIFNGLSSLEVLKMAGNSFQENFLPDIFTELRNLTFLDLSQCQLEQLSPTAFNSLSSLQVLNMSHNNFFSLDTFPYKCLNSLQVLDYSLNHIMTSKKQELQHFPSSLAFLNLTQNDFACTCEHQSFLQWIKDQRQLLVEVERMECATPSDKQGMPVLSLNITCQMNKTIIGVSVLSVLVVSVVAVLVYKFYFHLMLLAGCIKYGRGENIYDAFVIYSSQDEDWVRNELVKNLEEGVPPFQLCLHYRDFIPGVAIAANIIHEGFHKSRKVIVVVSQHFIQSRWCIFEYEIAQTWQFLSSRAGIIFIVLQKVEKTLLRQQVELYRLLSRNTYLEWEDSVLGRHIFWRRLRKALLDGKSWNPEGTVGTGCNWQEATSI
Chain of TLR4 (Q9Y6Y9 17-160 partner limits assumed): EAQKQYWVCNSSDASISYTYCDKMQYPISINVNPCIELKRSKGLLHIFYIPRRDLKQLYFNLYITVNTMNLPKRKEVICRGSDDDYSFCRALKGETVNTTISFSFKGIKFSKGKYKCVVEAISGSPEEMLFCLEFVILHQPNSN

For “H-H-H-H-H-H-KYSFKLILAEY (HHHHHHKYSFKLILAEY) [His-A464]”, the “pulldown of overexpressed Mal” value (Mal) was “capable of pulling down overexpressed Mal or TRAM” and the “pulldown of overexpressed TRAM” value (TRAM) was “capable of pulling down overexpressed Mal or TRAM”.

With H-H-H-H-H-H-RNTISGNIYSA [His-A467] the “pulldown of overexpressed Mal” value (Mal) was “not” and the “pulldown of overexpressed TRAM” value (TRAM) was “not”.

In the case of “KYSFKLILAAYRRRRRRRRR [Peptide E10A, KYSFKLILAAY-9R]”, the “solubility of the peptide” value [1] is reported as “insoluble”.

In the case of “P13 (DIVKLTVYDCIRRRRRRRRR) [Peptide P13]”, the “inhibition of LPS-induced TNFα production” value (TLR4) is listed as “even at a high dose of 40 μM, was ineffective at inhibiting TLR4”, the “ability to block TLR responses in human cells” value (TLRs) is listed as “unable to block TLR responses in human cells” and the “reduction of in vivo bacterial-induced inflammation” value [2] is listed as “can reduce”. The “reduction of LPS-induced inflammatory mediators in mice” value [3] was “can reduce”.
